# In PMC11859928, “Design, Synthesis, and Antiproliferative Activity of Novel Indole/1,2,4-Triazole Hybrids as Tubulin Polymerization Inhibitors” (Pharmaceuticals, 2025):
# Where two headings read alike, the source gives them in different places.
# What was measured:
# BT-549 = experiment: NCI one-dose assay; format: cell-based; settings: Homo sapiens, BT-549, Breast cancer, read-out: Cell growth inhibition %
# EKVX = experiment: NCI one-dose assay; format: cell-based; settings: Homo sapiens, Non-small cell lung cancer, read-out: Cell growth inhibition %
# HCC-2998 = experiment: NCI one-dose assay; format: cell-based; settings: Homo sapiens, HCC-2998, Colon cancer, read-out: Cell growth inhibition %
# HCT-116 = experiment: NCI one-dose assay; format: cell-based; settings: Homo sapiens, HCT-116, Colon cancer, read-out: Cell growth inhibition %
# HL-60(TB) = experiment: NCI one-dose assay; format: cell-based; settings: Homo sapiens, Leukemia, read-out: Cell growth inhibition %
# HT29 = experiment: NCI one-dose assay; format: cell-based; settings: Homo sapiens, HT-29, HT29, Colon cancer, read-out: Cell growth inhibition %
# LOX IMVI = experiment: NCI one-dose assay; format: cell-based; settings: Homo sapiens, Melanoma, read-out: Cell growth inhibition %
# MCF7 = experiment: NCI one-dose assay; format: cell-based; settings: Homo sapiens, MCF7, Breast cancer, read-out: Cell growth inhibition %
# MDA-MB-231/ATCC = experiment: NCI one-dose assay; format: cell-based; settings: Homo sapiens, Breast cancer, read-out: Cell growth inhibition %
# NCI-H322M = experiment: NCI one-dose assay; format: cell-based; settings: Homo sapiens, Non-small cell lung cancer, read-out: Cell growth inhibition %
# NCI-H460 = experiment: NCI one-dose assay; format: cell-based; settings: Homo sapiens, NCI-H460, Non-small cell lung cancer, read-out: Cell growth inhibition %
# NCI-H522 = experiment: NCI one-dose assay; format: cell-based; settings: Homo sapiens, NCI-H522, Non-small cell lung cancer, read-out: Cell growth inhibition %
# SF-295 = experiment: NCI one-dose assay; format: cell-based; settings: Homo sapiens, SF-295, CNS cancer, read-out: Cell growth inhibition %
# SK-MEL-28 [1] = experiment: NCI one-dose assay; format: cell-based; settings: Homo sapiens, SK-MEL-28, Melanoma, read-out: Cell growth inhibition %
# SK-OV-3 = experiment: NCI one-dose assay; format: cell-based; settings: Homo sapiens, SK-OV-3, Ovarian cancer, read-out: Cell growth inhibition %
# SW-620 [2] = experiment: NCI one-dose assay; format: cell-based; settings: Homo sapiens, SW-620, Colon cancer, read-out: Cell growth inhibition %
# T-47D = experiment: NCI one-dose assay; format: cell-based; settings: Homo sapiens, T47D, Breast cancer, read-out: Cell growth inhibition %
# TK-10 = experiment: NCI one-dose assay; format: cell-based; settings: Homo sapiens, TK-10, Renal cancer, read-out: Cell growth inhibition %
# U251 = experiment: NCI one-dose assay; format: cell-based; settings: Homo sapiens, U-251, U251, CNS cancer, read-out: Cell growth inhibition %
# 786-0 = experiment: NCI one-dose assay; format: cell-based, human; settings: Homo sapiens, 786-0, 786-0, Renal cancer, read-out: Cell growth inhibition %
# Method: (§1) The National Cancer Institute (NCI), Bethesda, USA, selected the final compounds 6a–j and 7a–j for in vitro anticancer screening. An initial in vitro single-dose anticancer experiment was performed with the entire NCI 60 cell lines derived from nine tumor subpanel cancer cell lines. The results for each compound were illustrated as a mean graph showing the percentage growth of treated cells compared to untreated control cells (see Supplementary Materials).
# (§2) The NCI anticancer screening process has been thoroughly detailed. The Drug Evaluation Branch of the National Cancer Institute in Bethesda, […], USA, established the procedure and conducted the anticancer assay on 60 human tumor cell lines from nine neoplastic cancers.
# A498 = experiment: NCI one-dose assay; format: cell-based, human; settings: Homo sapiens, A498, A498, Renal cancer, read-out: Cell growth inhibition %
# Method: as §1, §2
# HOP-92 = experiment: NCI one-dose assay; format: cell-based, human; settings: Homo sapiens, HOP-92, HOP-92, Non-small cell lung cancer, read-out: Cell growth inhibition %
# Method: as §1, §2
# UO-31 = experiment: NCI one-dose assay; format: cell-based, human; settings: Homo sapiens, UO-31, UO-31, Renal cancer, read-out: Cell growth inhibition %
# Method: as §1, §2
# SW-620 [3] = experiment: NCI five-dose assay; format: cell-based, human; settings: SW-620, Colon cancer; for CC50 / GI50: Homo sapiens; for CC50: 48 h, read-out: LC50 (the source's name); for GI50: read-out: GI50 Conc. per Cell Lines
# SF-539 = experiment: NCI five-dose assay; format: cell-based, human; settings: SF-539, CNS cancer; for CC50 / GI50: Homo sapiens; for CC50: 48 h, read-out: LC50 (the source's name); for GI50: read-out: GI50 Conc. per Cell Lines
# SNB-75 = experiment: NCI five-dose assay; format: cell-based, human; settings: SNB-75, CNS cancer; for CC50 / GI50: Homo sapiens; for CC50: 48 h, read-out: LC50 (the source's name); for GI50: read-out: GI50 Conc. per Cell Lines
# MALME-3M = experiment: NCI five-dose assay; format: cell-based, human; settings: Melanoma; for GI50: read-out: GI50 Conc. per Cell Lines
# SK-MEL-28 [4] = experiment: NCI five-dose assay; format: cell-based, human; settings: SK-MEL-28, Melanoma; for CC50 / GI50: Homo sapiens; for CC50: 48 h, read-out: LC50 (the source's name); for GI50: read-out: GI50 Conc. per Cell Lines
# SK-MEL-5 = experiment: NCI five-dose assay; format: cell-based, human; settings: SK-MEL-5, Melanoma; for CC50 / GI50: Homo sapiens; for CC50: 48 h, read-out: LC50 (the source's name); for GI50: read-out: GI50 Conc. per Cell Lines
# NCI 60 cell lines = experiment: NCI one-dose assay, full panel; format: cell-based, human; settings: Homo sapiens, 60 cell, read-out: cell growth inhibition percentage, range
# Method: as §1, §2
structure (smiles),measurement,setting,value
"Cc1ccc(C(=O)CSc2nnc(-c3c[nH]c4ccccc34)n2-c2ccccc2)cc1 [Compound 6h, 2-((5-(1H-Indol-3-yl)-4-phenyl-4H-1,2,4-triazol-3-yl)thio)-1-(p-tolyl)ethenone]",inhibition at 10 µM,BT-549,77.6%
same,inhibition at 10 µM,EKVX,47%
same,inhibition at 10 µM,HCC-2998,33.6%
same,inhibition at 10 µM,HCT-116,92.3%
same,inhibition at 10 µM,HL-60(TB),56.6%
same,inhibition at 10 µM,HT29,92.9%
same,inhibition at 10 µM,LOX IMVI,120%
same,inhibition at 10 µM,MCF7,87.5%
same,inhibition at 10 µM,MDA-MB-231/ATCC,102%
same,inhibition at 10 µM,NCI-H322M,25.1%
same,inhibition at 10 µM,NCI-H460,70.7%
same,inhibition at 10 µM,NCI-H522,98.6%
same,inhibition at 10 µM,SF-295,88.9%
same,inhibition at 10 µM,SK-MEL-28 [1],51%
same,inhibition at 10 µM,SK-OV-3,76%
same,inhibition at 10 µM,SW-620 [2],81%
same,inhibition at 10 µM,T-47D,53.3%
same,inhibition at 10 µM,TK-10,102%
same,inhibition at 10 µM,U251,90.2%
same,inhibition at 10 µM,786-0,135%
same,inhibition at 10 µM,A498,14.2%
same,inhibition at 10 µM,HOP-92,108%
same,inhibition at 10 µM,UO-31,69.7%
same,CC50,SW-620 [3],> 100 µM
same,GI50,SW-620 [3],30.3 µM
same,TGI Conc. per Cell Lines,SW-620 [3],>100 µM
same,CC50,SF-539,54.2 µM
same,GI50,SF-539,15 µM
same,TGI Conc. per Cell Lines,SF-539,28.50 µM
same,CC50,SNB-75,68 µM
same,GI50,SNB-75,12.9 µM
same,TGI Conc. per Cell Lines,SNB-75,29.60 µM
same,GI50,MALME-3M; Homo sapiens,16.2 µM
same,TGI Conc. per Cell Lines,MALME-3M,36.20 µM
same,CC50,SK-MEL-28 [4],> 100 µM
same,GI50,SK-MEL-28 [4],19.6 µM
same,TGI Conc. per Cell Lines,SK-MEL-28 [4],52.10 µM
same,CC50,SK-MEL-5,92.4 µM
same,GI50,SK-MEL-5,16.5 µM
same,TGI Conc. per Cell Lines,SK-MEL-5,39.10 µM
same,inhibition at 10 µM,NCI 60 cell lines; ten cancer cell lines with complete cell death,101 to 141%
same,inhibition at 10 µM,NCI 60 cell lines; twenty-five cell lines,67 to 99%
"O/N=C(\CSc1nnc(-c2c[nH]c3ccccc23)n1-c1ccccc1)c1ccccc1 [Compound 7f, (Z)-2-((5-(1H-Indol-3-yl)-4-phenyl-4H-1,2,4-triazol-3-yl)thio)-1-phenylethanone Oxime]",inhibition at 10 µM,BT-549,42.5%
same,inhibition at 10 µM,EKVX,73.6%
same,inhibition at 10 µM,HCC-2998,43.3%
same,inhibition at 10 µM,HCT-116,60%
same,inhibition at 10 µM,HL-60(TB),75.3%
same,inhibition at 10 µM,HT29,50.7%
same,inhibition at 10 µM,LOX IMVI,59%
same,inhibition at 10 µM,MCF7,58.9%
same,inhibition at 10 µM,MDA-MB-231/ATCC,31.3%
same,inhibition at 10 µM,NCI-H322M,35%
same,inhibition at 10 µM,NCI-H460,66%
same,inhibition at 10 µM,NCI-H522,46.2%
same,inhibition at 10 µM,SF-295,60.8%
same,inhibition at 10 µM,SK-MEL-28 [1],45.5%
same,inhibition at 10 µM,SK-OV-3,30.6%
same,inhibition at 10 µM,SW-620 [2],47.2%
same,inhibition at 10 µM,T-47D,80.2%
same,inhibition at 10 µM,TK-10,34%
same,inhibition at 10 µM,U251,46.2%
same,inhibition at 10 µM,786-0,17.9%
same,inhibition at 10 µM,A498,14.8%
same,inhibition at 10 µM,HOP-92,82.7%
same,inhibition at 10 µM,UO-31,71.6%
"COc1ccc(/C(CSc2nnc(-c3c[nH]c4ccccc34)n2-c2ccccc2)=N/O)cc1 [Compound 7g, (Z)-2-((5-(1H-Indol-3-yl)-4-phenyl-4H-1,2,4-triazol-3-yl)thio)-1-(4-methoxyphenyl) Ethanone Oxime]",inhibition at 10 µM,BT-549,83.5%
same,inhibition at 10 µM,EKVX,84.9%
same,inhibition at 10 µM,HCC-2998,57.6%
same,inhibition at 10 µM,HCT-116,71.9%
same,inhibition at 10 µM,HL-60(TB),96.1%
same,inhibition at 10 µM,HT29,68%
same,inhibition at 10 µM,LOX IMVI,178%
same,inhibition at 10 µM,MCF7,85.5%
same,inhibition at 10 µM,MDA-MB-231/ATCC,39.3%
same,inhibition at 10 µM,NCI-H322M,63.6%
same,inhibition at 10 µM,NCI-H460,82.8%
same,inhibition at 10 µM,NCI-H522,63.5%
same,inhibition at 10 µM,SF-295,79%
same,inhibition at 10 µM,SK-MEL-28 [1],62.6%
same,inhibition at 10 µM,SK-OV-3,47.9%
same,inhibition at 10 µM,SW-620 [2],60.6%
same,inhibition at 10 µM,T-47D,89.7%
same,inhibition at 10 µM,TK-10,57.4%
same,inhibition at 10 µM,U251,60.6%
same,inhibition at 10 µM,786-0,40.3%
same,inhibition at 10 µM,A498,30.2%
same,inhibition at 10 µM,HOP-92,71.8%
same,inhibition at 10 µM,UO-31,81.8%
"Cc1ccc(/C(CSc2nnc(-c3c[nH]c4ccccc34)n2-c2ccccc2)=N/O)cc1 [Compound 7h, (Z)-2-((5-(1H-Indol-3-yl)-4-phenyl-4H-1,2,4-triazol-3-yl)thio)-1-(p-tolyl)ethanone Oxime]",inhibition at 10 µM,BT-549,176%
same,inhibition at 10 µM,EKVX,71.8%
same,inhibition at 10 µM,HCC-2998,142%
same,inhibition at 10 µM,HCT-116,97.4%
same,inhibition at 10 µM,HL-60(TB),114%
same,inhibition at 10 µM,HT29,93.7%
same,inhibition at 10 µM,LOX IMVI,188%
same,inhibition at 10 µM,MCF7,155%
same,inhibition at 10 µM,MDA-MB-231/ATCC,182%
same,inhibition at 10 µM,NCI-H322M,142%
same,inhibition at 10 µM,NCI-H460,98%
same,inhibition at 10 µM,NCI-H522,76.2%
same,inhibition at 10 µM,SF-295,150%
same,inhibition at 10 µM,SK-MEL-28 [1],37.5%
same,inhibition at 10 µM,SK-OV-3,88.5%
same,inhibition at 10 µM,SW-620 [2],180%
same,inhibition at 10 µM,T-47D,147%
same,inhibition at 10 µM,TK-10,165%
same,inhibition at 10 µM,U251,89.6%
same,inhibition at 10 µM,786-0,97.8%
same,inhibition at 10 µM,A498,8.13%
same,inhibition at 10 µM,HOP-92,106%
same,inhibition at 10 µM,UO-31,93.5%
same,CC50,SW-620 [3],7.04 µM
same,GI50,SW-620 [3],1.79 µM
same,TGI Conc. per Cell Lines,SW-620 [3],3.55 µM
same,CC50,SF-539,9.43 µM
same,GI50,SF-539,2.06 µM
same,TGI Conc. per Cell Lines,SF-539,4.41 µM
same,CC50,SNB-75,5.48 µM
same,GI50,SNB-75,1.4 µM
same,TGI Conc. per Cell Lines,SNB-75,2.77 µM
same,CC50,"MALME-3M; Homo sapiens, 48 h, read-out: LC50 (the source's name)",59.1 µM
same,GI50,MALME-3M; Homo sapiens,2.26 µM
same,TGI Conc. per Cell Lines,MALME-3M,5.57 µM
same,CC50,SK-MEL-28 [4],> 100 µM
same,GI50,SK-MEL-28 [4],5.67 µM
same,TGI Conc. per Cell Lines,SK-MEL-28 [4],38.7 µM
same,CC50,SK-MEL-5,> 100 µM
same,GI50,SK-MEL-5,4.76 µM
same,TGI Conc. per Cell Lines,SK-MEL-5,48.1 µM
same,inhibition at 10 µM,NCI 60 cell lines; sixteen cell lines,72 to 98%
same,inhibition at 10 µM,NCI 60 cell lines; thirty-six cell lines with complete cell death,106 to 200%
